Read-outs that look alike come from different tables or passages of the source.
Assays:
NOS1−/− myocytes [1] = test: SR Ca2+ leakage protocol, Example 1 (0Na/0Ca buffer, caffeine); assay type: cell-based, mouse
Method: The hearts were cannulated and perfused trough the aorta with Ca^2+-free bicarbonate buffer containing (in mM) 120 NaCl, 5.4 KCl, 1.2 MgSO4, 1.2 NaH2PO4, 5.6 glucose, 20 NaHCO3, 10 2,3-butanedione monoxime (BDM; Sigma), and 5 taurine (Sigma), gassed with 95% O2-5% CO2, followed by enzymatic digestion with collagenase type 2 (1 mg/ml; Worthington) and protease type XIV (0.1 mg/ml; Sigma). Ventricular myocytes were obtained by mechanical disruption of digested hearts, filtration, centrifugation, and resuspension in a Tyrode solution containing (in mM) 0.125 mM CaCl2 144 NaCl, 1 MgCl2, 10 HEPES, 5.6 Glucose, 1.2 NaHPO4, 5 KCl, adjusted to a pH of 7.4 with NaOH. Then, the Ca^2+ content of the buffer was increased in steps until reaching 1.8 mM.
Myocytes were incubated with 5 μmol/L fura-2/AM (Molecular Probes, Eugene, Oreg.) then transferred to a Lucite chamber on the stage of an inverted microscope (Nikon TE 200), continuously superfused with Tyrode solution. Sarcomere length (SL) and Ca^2+ transients ([Ca^2+]i) were measured in myocytes stimulated at 1, 2, 4, 6 and 8 Hz. All experiments were conducted at 37° C.
Calcium leakage was assessed as described by Shannon et al (Shannon, T. R. et al., 2002. Circ. Res. 91:594-600). Ventricular myocytes were paced by field stimulation at the different frequencies in normal Tyrode until cellular Ca^2+ transients reached a steady state. After the last pulse, the superfusing solution was rapidly switched to 0Na^+-0Ca^2+ (Na^+ replaced by Li^+) Tyrode with or without 1 mmol/L tetracaine. In the control condition, [Ca^2+]i was monitored while 0Na^+-0Ca^2+ Tyrode buffer was applied at least 40 seconds, then a rapid pulse of 10 mm/L caffeine was added to cause SR Ca^2+ release. The difference between the basal and the peak total cytosolic [Ca^2+]i in the presence of caffeine is therefore [Ca^2+]T. In the test condition, 0Na+0Ca^2+ Tyrode was applied with tetracaine. In this condition, the leakage is blocked and the difference in [Ca^2+]T between tetracaine and control condition corresponds to diastolic leakage. […]

NOS1−/− myocytes [2] = test: Force-frequency response: sarcomere shortening and calcium transients; assay type: cell-based, mouse; conditions: hydralazine 0.01, nitroglycerin 0.01, DETA/NO 0.1 mmol/L, 5 minutes incubation
Method: (§1) Isolated Myocytes Preparation: Cardiac myocytes were isolated and prepared from mouse hearts as described in detail by Khan et al. (Khan S. A. et al. Circ Res 2003;92:1322-1329). Sarcomere length (SL) and [Ca^2+]i were measured simultaneously in myocytes stimulated at 1, 2, 4, 6 and 8 Hz. […] All experiments were conducted at 37° C. SL was recorded with an IonOptix iCCD camera. Change in average SL was determined by Fast Fourier Transform analysis of the Z-line density trace to the frequency domain, and SL Shortening was calculated as follows: (diastolic SL—systolic SL)/diastolic SL. Intracellular calcium, was measured using the Ca^2+-sensitive dye Fura-2 and a dual-excitation spectrofluorometer (IonOptix), alternately excited with a xenon lamp at wavelengths of 365 and 380 nm The emission fluorescence was reflected through a barrier filter (510±15 nm) to a photomultiplier tube. The Fura-2 fluorescence ratio, i.e., the ratio of the photon live count detected by the excitation at 365 nm compared with 380 nm, represents [Ca^2]i.

wt myocytes = test: as above; assay type: cell-based, mouse; conditions: hydralazine 0.01, nitroglycerin 0.01, DETA/NO 0.1 mmol/L, 5 minutes incubation
Method: as §1

NOS1−/− cardiomyocytes = test: Sarcoplasmic reticulum Ca2+ stores by rapid caffeine infusion; conditions: for Sarcoplasmic reticulum Ca2+ content (% [Ca2+]i, percent change from baseline): NOS1−/− cardiomyocytes, 4 Hz, caffeine 10 mmol/L, untreated NOS1−/− 13.7±3.1%; for Ca2+ reserves: NOS1−/− myocytes at 4 Hz
Method: In order to assess calcium stores, caffeine (10 mmol/L) was rapidly infused after a 10 second pause following steady-state pacing at 1 and 4 Hz. In order to calculate the [Ca^2+]i of caffeine pulse was normalized as follows:
([Ca^2+]i at caffeine−[Ca^2+]i at pacing)/[Ca^2+]i at pacing×100.
Experiments were then repeated after incubating the cells with previously mentioned drugs.

NOS1−/− myocytes [3] = test: Assessment of SR Ca2+ leakage with tetracaine, Example 2; assay type: cell-based, mouse
Method: Assessment of SR Ca^2+ leakage: Calcium leakage was assessed as described by Shannon et al (Shannon T. R. et al. Circ Res 2002; 91:594-600). Ventricular myocytes were paced by field stimulation at the different frequencies in normal Tyrode until cellular Ca^2+ transients reached a steady state. After the last pulse, the superfusing solution was rapidly switched to 0Na^+-0Ca^2+(Na^+ replaced by Li^+) Tyrode with or without 1 mmol/L tetracaine. In the control condition, [Ca^2+]i was monitored while 0Na^+-0Ca^2+ Tyrode buffer was applied at least 40 seconds, rapid pulse of 10 mm/L caffeine was added to cause SR Ca^2+ release. The difference between the basal and the peak total cytosolic [Ca^2+]i in the presence of caffeine is, therefore, [Ca^2+]τ. In the test condition, 0Na^+0Ca^2+ Tyrode was applied with tetracaine. In this condition, the leakage is blocked and the difference in [Ca^2+]τ between tetracaine and control condition is diastolic leakage. To calculate [Ca^2+]τ in the SR, the total SR volume was considered 3% of the cell volume and the cytosol volume, 65% of the cell volume.

NADPH oxidase (NOX) [4] = test: NOX-dependent superoxide production, lucigenin chemiluminescence in heart homogenates; assay type: biochemical, mouse; conditions: NOS1−/− cardiac homogenates
Method: NOX-dependent superoxide production: NADPH-dependent superoxide production was measured in heart homogenates using lucigenin (5 μmol/L)-enhanced chemiluminescence (β-NADPH 300 μmol/L; room temperature) on a microplate luminometer (Veritas, Turner Biosystems, Sunnyvale, Calif.). Briefly, proteins were diluted in modified Krebs-HEPES buffer. NADPH and lucigenin were added to wells just before reading. Chemiluminescence readings were expressed as integrated light units. […] Experiments also were performed in the presence of the flavoprotein inhibitor diphenyleneiodonium (DPI, 0.01 mmol/L).

[5] = target: T1, xanthine oxidoreductase (XOR) (Mus musculus, UniProt Q00519); test: Xanthine oxidoreductase activity, Amplex red superoxide production in heart homogenates; assay type: biochemical
T1 construct: NOS 1^−/− cardiac homogenates as source of the enzyme; from tissue; host or cells: heart homogenate of NOS1-/- mice, passed through Sephadex G-25
Method: (§2) Xanthine Oxidoreductase activity: XOR activity was investigated by measuring uric acid and superoxide production. Heart homogenates were passed through a Sephadex G-25 column (GE Healthcare, Piscataway, N.J.) and XOR-dependent superoxide production was measured using Amplex red (Molecular Probes, Eugene, Oreg.) (0.05 mmol/L), horseradish peroxidase (HRP, 0.2 U/ml) and xanthine (0.1 mmol/L). In the assay, xanthine oxidase catalyzes the oxidation of xanthine to uric acid and superoxide. Superoxide spontaneously degrades to hydrogen peroxide (H2O2), and this, in the presence of HRP, reacts with Amplex Red to generate resurofin. Resurofin fluorescence was measured at 590 nm with excitation at 530-560 nm In parallel, the processed effluent was assessed spectrophotometrically at 295 nm for uric acid. The reaction mixture in 50 mM phosphate buffer, pH 7.4, contained 50 μl of the effluent, EDTA-Na2 (1 mmol/L), xanthine (0.2 mmol/L). […] The obtained values were plotted against a standard curve with known concentrations of XOR.

[6] = target: T1, xanthine oxidoreductase (XOR); test: Xanthine oxidoreductase activity, uric acid production in heart homogenates; assay type: biochemical; conditions: NOS1−/− cardiac homogenates, xanthine 0.2 mmol/L
Method: as §2

NADPH oxidase (NOX) [7] = test: NADPH oxidase dependent ONOO− production, APF fluorescence in heart homogenates; assay type: biochemical, mouse; conditions: NOS1−/− heart extracts, NADPH 0.3 mmol/L; read-out: IC50, NOX-dependent peroxynitrite production
Method: NADPH oxidase dependent and XOR dependent ONOO— production: NADPH oxidase and XOR dependent ONOO— production was measured in heart homogenates using p-aminophenyl fluorescein (APF) as indicator. Proteins were diluted in modified Krebs-HEPES buffer and incubated with NADPH or xanthine for 30 minutes at 37° C. APF was added just before the fluorescence readings, measuring at 515 nm with excitation at 490 nm.

[8] = 100 μM, paced at 4 Hz, NOS1−/− myocytes

T1 sequence (Q00519 whole entry): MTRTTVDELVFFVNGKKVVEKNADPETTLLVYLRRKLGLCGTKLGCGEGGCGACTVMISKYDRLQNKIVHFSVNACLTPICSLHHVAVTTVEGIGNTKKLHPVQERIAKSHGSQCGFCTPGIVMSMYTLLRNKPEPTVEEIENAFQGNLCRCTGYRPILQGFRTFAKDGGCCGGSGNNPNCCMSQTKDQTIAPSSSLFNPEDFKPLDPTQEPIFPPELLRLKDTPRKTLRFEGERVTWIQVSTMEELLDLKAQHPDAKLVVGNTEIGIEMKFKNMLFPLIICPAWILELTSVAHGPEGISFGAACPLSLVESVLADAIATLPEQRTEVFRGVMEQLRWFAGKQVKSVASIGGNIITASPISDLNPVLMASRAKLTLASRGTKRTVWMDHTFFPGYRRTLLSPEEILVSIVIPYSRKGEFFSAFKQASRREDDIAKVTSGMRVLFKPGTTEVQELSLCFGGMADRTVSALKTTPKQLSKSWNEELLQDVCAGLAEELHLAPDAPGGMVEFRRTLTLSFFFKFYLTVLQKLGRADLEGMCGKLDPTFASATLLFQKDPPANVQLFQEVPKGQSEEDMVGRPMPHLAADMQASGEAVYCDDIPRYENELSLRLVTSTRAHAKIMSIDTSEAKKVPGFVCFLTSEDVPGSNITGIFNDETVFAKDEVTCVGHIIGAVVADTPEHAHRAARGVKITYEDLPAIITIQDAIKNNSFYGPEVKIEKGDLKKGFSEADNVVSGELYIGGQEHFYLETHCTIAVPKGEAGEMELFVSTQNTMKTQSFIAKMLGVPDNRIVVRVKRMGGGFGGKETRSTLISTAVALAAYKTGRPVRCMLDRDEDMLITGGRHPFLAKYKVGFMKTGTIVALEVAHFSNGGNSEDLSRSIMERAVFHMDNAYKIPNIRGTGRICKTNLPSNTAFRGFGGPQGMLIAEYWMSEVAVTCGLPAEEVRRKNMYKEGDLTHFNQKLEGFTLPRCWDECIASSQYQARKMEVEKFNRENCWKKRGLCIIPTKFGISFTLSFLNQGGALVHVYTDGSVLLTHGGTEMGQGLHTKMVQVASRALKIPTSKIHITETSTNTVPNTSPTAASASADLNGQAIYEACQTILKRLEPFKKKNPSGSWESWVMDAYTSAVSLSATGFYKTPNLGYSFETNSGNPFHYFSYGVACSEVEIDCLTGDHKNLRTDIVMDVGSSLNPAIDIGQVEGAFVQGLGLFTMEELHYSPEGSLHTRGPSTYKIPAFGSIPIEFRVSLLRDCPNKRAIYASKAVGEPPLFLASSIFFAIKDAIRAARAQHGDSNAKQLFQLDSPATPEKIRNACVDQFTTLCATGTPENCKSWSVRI

NCCN(CCN)/[N+]([O-])=N/O [DETA/NO, diethylenetriamine/nitric oxide adduct]
SR content (NOS1−/− myocytes [1]; [8]): increased
diastolic Ca2+ waves (NOS1−/− myocytes [1]; [8]): did not reduce
suppressed SL and [Ca2+]i responses (NOS1−/− myocytes [2]): restored towards levels similar to WT
sarcomere shortening or calcium transients (wt myocytes): no effect
Sarcoplasmic reticulum Ca2+ content (% [Ca2+]i, percent change from baseline) (NOS1−/− cardiomyocytes): 42.8±6.5%
Ca2+ reserves (NOS1−/− cardiomyocytes): increased

O=[N+]([O-])OCC(CO[N+](=O)[O-])O[N+](=O)[O-] [nitroglycerin]
suppressed SL and [Ca2+]i responses (NOS1−/− myocytes [2]): restored towards levels similar to WT
sarcomere shortening or calcium transients (wt myocytes): no effect
Diastolic Ca2+ leak, drug alone (NOS1−/− myocytes [3]; nitroglycerin 10 μmol/L, hydralazine 100 μmol/L): not abolished
concentration that decreased NOX activity / NOX dependent superoxide production (NADPH oxidase (NOX) [4]): > 0.01 mmol/L
IC50 (NADPH oxidase (NOX) [4]; NADPH 0.3 mmol/L): 13 µM
IC50 [5]: 1000 ± 400 µM
XOR enzyme activity (uric acid conversion) [6]: did display XOR-inhibitory activity
IC50 (NADPH oxidase (NOX) [7]): 1300 ± 400 µM
Sarcoplasmic reticulum Ca2+ content (% [Ca2+]i, percent change from baseline) (NOS1−/− cardiomyocytes): 42.8±6.5%
Ca2+ reserves (NOS1−/− cardiomyocytes): increased

NNc1nncc2ccccc12 [hydralazine]
sarcomere shortening or calcium transients (wt myocytes): no effect
IC50 ([5]; NOS1−/− cardiac homogenates, xanthine 0.1 mmol/L, read-out: IC50, Amplex red XOR activity): 700 ± 300 µM
Sarcoplasmic reticulum Ca2+ content (% [Ca2+]i, percent change from baseline) (NOS1−/− cardiomyocytes): 49.2±16.3%

CCCCNc1ccc(C(=O)OCCN(C)C)cc1 [tetracaine]
spontaneous Ca2+ transients (waves) during 0Na+/0Ca2+ treatment (NOS1−/− myocytes [1]; NOS1−/− and NOS3/NOS1−/− myocytes, 1 mmol/L tetracaine): abolished
spontaneous Ca2+ waves (NOS1−/− myocytes [3]; tetracaine 1 mmol/L): abolished

Reference: US20100316622A1, “DIAGNOSIS AND TREATMENT OF CARDIAC DISORDERS” (UNIVERSITY OF MIAMI, priority 2007, published 2010)
